{"source": "patent US7494643B2", "about": "“Method and topical composition for the treatment of hyperpigmented skin” (priority 2003, dated 2009)", "origin": "cited, not measured here", "key": {"mushroom-tyrosinases": {"system": "mushroom-tyrosinases", "details": "competitive inhibition; cited from earlier work"}, "human-tyrosinase": {"target": "T1, human-tyrosinase (Homo sapiens, UniProt P14679)", "T1 sequence (P14679 19-529)": "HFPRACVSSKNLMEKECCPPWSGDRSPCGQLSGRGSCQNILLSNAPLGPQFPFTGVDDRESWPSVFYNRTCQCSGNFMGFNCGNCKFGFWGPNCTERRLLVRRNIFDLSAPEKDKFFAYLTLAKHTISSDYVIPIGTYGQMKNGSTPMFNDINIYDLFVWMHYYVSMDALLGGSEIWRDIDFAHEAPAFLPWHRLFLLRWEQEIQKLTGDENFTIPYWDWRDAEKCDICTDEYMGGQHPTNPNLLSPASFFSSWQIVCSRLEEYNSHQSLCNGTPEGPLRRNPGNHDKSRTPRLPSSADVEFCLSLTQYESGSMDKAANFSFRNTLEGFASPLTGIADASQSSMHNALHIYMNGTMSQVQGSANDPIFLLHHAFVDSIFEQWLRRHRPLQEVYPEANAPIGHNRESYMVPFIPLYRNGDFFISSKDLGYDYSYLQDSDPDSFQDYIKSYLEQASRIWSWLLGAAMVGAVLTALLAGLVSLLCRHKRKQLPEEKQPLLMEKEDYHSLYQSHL", "details": "competitive inhibition; cited from earlier work"}, "[1]": {"system": "tyrosinase isolated from black goldfish and standard goldfish", "details": "cited from earlier work"}, "black goldfish": {"system": "black goldfish", "details": "ingested by the fish; cited from earlier work"}, "cultured pigment cells": {"system": "cultured pigment cells", "details": "cited from earlier work"}, "melanocytes": {"system": "melanocytes", "details": "cited from earlier work"}, "HIV": {"system": "HIV", "details": "NCI primary screen; cited from earlier work"}}}
{"compound": "OC[C@H]1O[C@@H](Oc2ccc(O)cc2)[C@H](O)[C@@H](O)[C@@H]1O", "note": "[Arbutin]", "values": [{"measurement": "inhibition of enzyme activity of mushroom tyrosinase", "setting": "mushroom-tyrosinases", "value": "inhibits enzyme activity"}, {"measurement": "inhibition of enzyme activity of human tyrosinase", "setting": "human-tyrosinase", "value": "inhibits enzyme activity"}]}
{"compound": "O=c1cc(CO)occ1O", "note": "[Kojic acid]", "values": [{"measurement": "inhibition of tyrosinase", "setting": "[1]", "value": "inhibit tyrosinase"}, {"measurement": "colour of black goldfish after ingestion", "setting": "black goldfish", "value": "almost yellow-brown"}, {"measurement": "suppression of melanogenesis", "setting": "cultured pigment cells", "value": "suppress melanogenesis"}]}
{"compound": "Oc1ccc(O)cc1", "note": "[hydroquinone]", "values": [{"measurement": "cytotoxicity (destroys the cellular walls of the melanocytes)", "setting": "melanocytes", "value": "cytotoxic"}]}
{"compound": "Vismiaphenone D", "values": [{"measurement": "HIV-inhibitory activity", "setting": "HIV", "value": "HIV-inhibitory activity"}]}
